Measured values published in patent publication US20110189310A1, “SMALL MOLECULE MODULATORS OF PRONGF UPTAKE” (priority 2008, published 2011).
Where two headings read alike, the source gives them in different places.

Tests used:
Cultured rat SCG neurons = settings: for effect on proNGF induced neuronal apoptosis (FIG. 1): 10 μM compound, 5 ng/ml proNGF, rat SCG neurons 7 DIV
Procedure: (§1) (A) Neuronal apoptosis was assessed morphologically by DAPI and TuJ1 double staining and (B) quantitated as percentage of SCG neuron apoptosis. […] Error bars represent S.E.M.
as §1, with “A recent collaborative study assessed the expression and biological actions of proNGF following seizure induced injury to central neurons. […] (A)” for “(A)”

[1] = cited from earlier work
[2] = rat, in vivo, sc, 100 mg/kg
[3] = human, in vivo, cited from earlier work
[4] = mouse, in vivo; cited from earlier work
[5] = in vivo; cited from earlier work
[6] = monkey, in vivo; cited from earlier work
[7] = human, in vivo; cited from earlier work
dopaminergic neurons = settings: one report; cited from earlier work

O=C([O-])CC(O)(CC(=O)[O-])C(=O)[O-].[Li+].[Li+].[Li+] [Lithium Citrate]
inhibition of apoptosis, dose dependence (Cultured rat SCG neurons): dose dependent inhibition of apoptosis
effect on proNGF induced neuronal apoptosis (FIG. 1) (Cultured rat SCG neurons): blockade of proNGF induced neuronal apoptosis
toxicity profile in human ([1]; in vivo): excellent toxicity profiles in human

CC[C@H](C)C(=O)O[C@H]1C[C@@H](C)C=C2C=C[C@H](C)[C@H](CC[C@@H]3C[C@@H](O)CC(=O)O3)[C@H]21 [Lovastatin]
inhibition of apoptosis, dose dependence (Cultured rat SCG neurons): dose dependent inhibition of apoptosis
toxicity in SCG neuron assay (Cultured rat SCG neurons): without toxicity
toxicity profile in human ([1]; in vivo): excellent toxicity profiles in human

O=C([O-])[O-].[Li+].[Li+] [Lithium carbonate]
concentration at which efficacy is demonstrated (Cultured rat SCG neurons): 10 µM
peak serum concentration [2]: 3 mM
trough serum concentration [2]: 300 µM
serum concentration ([3]; po): 0.6 to 0.8 mmol
major toxicities [3]: reversible renal impairment and anemia
clinical toxicity [4]: no clinical toxicity
brain concentration relative to serum concentration [5]: approximately half
brain concentration relative to serum concentration [6]: approximately half

N[C@@H](Cc1ccc(O)c(O)c1)C(=O)O [Levodopa]
effect on proNGF induced neuronal apoptosis (FIG. 1) (Cultured rat SCG neurons): blockade of proNGF induced neuronal apoptosis
inhibition of apoptosis, dose dependence (Cultured rat SCG neurons; proNGF-induced SCG neuronal cell death): dose dependent inhibition of apoptosis
toxicity profile in human ([1]; human): excellent toxicity profiles in human
CSF level of major metabolite homovanillic acid [7]: 0.8 to 1 µM
L-dopa concentrations required for toxicity to dopaminergic neurons (dopaminergic neurons): 100 to 500 µM
